{"source": "patent US20190380346A1", "about": "“METHOD OF IMPROVING HEALTH AND ROOTING OF HARDWOOD TREES” (Bayer CropScience LP, priority 2018, published 2019)", "key": {"hardwood trees [1]": {"test_system": "hardwood trees", "experiment": "Growth Response for Post-Plant Treatments (Example 8), summary over treated species", "assay_type": "in vivo", "conditions": "post-plant (Table 8); all treated species except for Chinese chestnut", "protocol": "(§1) Hybrid poplar seedlings were planted as stem cuttings.\n(§2) Stem volume index is calculated as D^2H where D=groundline stem diameter and H=total height."}, "hardwood trees [2]": {"test_system": "hardwood trees", "experiment": "Growth Response for Pre-Plant Treatments (Example 7), summary over treated species", "assay_type": "in vivo", "conditions": "pre-plant (Table 7); all treated species, with the exceptions of chestnut oak and Chinese chestnut", "protocol": "as §1, §2"}}, "data": [{"smiles": "Cc1ccc2c(c1)[C@H](Nc1nc(N)nc(C(C)F)n1)[C@@H](C)C2", "note": "(mixture of isomers) [indaziflam, N2-[(1R,2S)-2,3-dihydro-2,6-dimethyl-1H-inden-1-yl]-6-[(1RS)-1-fluoroethyl]-1,3,5-triazine-2,4-diamine]", "values": [{"measurement": "growth response", "setting": "hardwood trees [1]", "result": "positive growth response"}, {"measurement": "growth response", "setting": "hardwood trees [2]", "result": "positive growth response"}]}]}
